Drawing on US20170233413A1, “SUBSTITUTED ANNULATED PYRIMIDINES AND USE THEREOF” (Bayer Pharma Aktiengesellschaft, priority 2014, published 2017), this text covers MEC and IC50 for 14 molecules.

The structures appear in SMILES notation. pIC50: −log10 of the molar value.

For test [1], the target named is T1, recombinant guanylate cyclase reporter cell line (Rattus norvegicus, UniProt P19686+P20595).
T1 construct: expressed in transfected cells
T1 sequence (P19686 1-690): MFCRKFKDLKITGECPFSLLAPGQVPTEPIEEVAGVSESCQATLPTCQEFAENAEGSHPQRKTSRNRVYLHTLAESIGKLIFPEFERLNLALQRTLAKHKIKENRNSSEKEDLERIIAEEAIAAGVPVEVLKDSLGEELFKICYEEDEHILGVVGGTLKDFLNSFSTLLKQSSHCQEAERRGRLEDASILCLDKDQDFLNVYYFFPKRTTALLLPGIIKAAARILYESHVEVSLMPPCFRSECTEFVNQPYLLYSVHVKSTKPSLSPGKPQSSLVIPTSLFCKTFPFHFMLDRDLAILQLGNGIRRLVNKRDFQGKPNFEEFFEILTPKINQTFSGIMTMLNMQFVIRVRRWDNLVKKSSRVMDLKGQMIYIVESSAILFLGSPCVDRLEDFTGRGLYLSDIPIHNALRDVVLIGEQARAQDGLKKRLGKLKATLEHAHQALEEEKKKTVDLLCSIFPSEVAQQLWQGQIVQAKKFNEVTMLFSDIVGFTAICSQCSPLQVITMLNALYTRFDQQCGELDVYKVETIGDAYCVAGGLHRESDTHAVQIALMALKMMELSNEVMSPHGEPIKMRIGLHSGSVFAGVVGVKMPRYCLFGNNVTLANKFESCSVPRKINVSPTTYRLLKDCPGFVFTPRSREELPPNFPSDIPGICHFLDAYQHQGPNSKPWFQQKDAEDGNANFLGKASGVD
T1 sequence (P20595 1-619): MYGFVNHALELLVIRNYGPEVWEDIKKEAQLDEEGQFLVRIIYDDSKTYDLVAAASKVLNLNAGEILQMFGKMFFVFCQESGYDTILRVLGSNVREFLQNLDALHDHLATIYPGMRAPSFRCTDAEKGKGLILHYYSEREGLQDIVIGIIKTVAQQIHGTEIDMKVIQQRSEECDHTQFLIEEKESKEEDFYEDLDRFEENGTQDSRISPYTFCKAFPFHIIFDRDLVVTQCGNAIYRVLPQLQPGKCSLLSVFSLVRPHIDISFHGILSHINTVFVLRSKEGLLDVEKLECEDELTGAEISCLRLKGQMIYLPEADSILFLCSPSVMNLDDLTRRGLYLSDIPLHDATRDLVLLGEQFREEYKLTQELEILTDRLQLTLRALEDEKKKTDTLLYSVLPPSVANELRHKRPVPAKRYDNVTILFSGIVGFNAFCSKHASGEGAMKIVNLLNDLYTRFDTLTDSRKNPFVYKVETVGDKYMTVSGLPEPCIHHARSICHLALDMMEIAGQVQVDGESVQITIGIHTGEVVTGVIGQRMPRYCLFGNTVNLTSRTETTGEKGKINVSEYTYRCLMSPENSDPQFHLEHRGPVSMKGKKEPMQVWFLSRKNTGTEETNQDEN
Nature of the test: Effect on a recombinant guanylate cyclase reporter cell line. The class given is cell-based. The following applies: MEC = minimum effective concentration; in some cases means of individual determinations. As for the experimental part:
B-2. Effect on a Recombinant Guanylate Cyclase Reporter Cell Line
The cellular activity of the compounds of the invention is determined using a recombinant guanylate cyclase reporter cell line, as described in F. Wunder et al., Anal. Biochem. 2005, 339, 104-112. Representative values (MEC=minimum effective concentration) for the compounds of the invention are shown in the table below (Table 1B; in some cases as means of individual determinations): […]

In test [2] the target is T2, human phosphodiesterase 5 (PDE 5) (Homo sapiens, UniProt O76074).
T2 construct: PDE 5 preparations are obtained from human platelets by disruption; from tissue; host or cells: human platelets
Nature of the test: Inhibition of human phosphodiesterase 5 (PDE 5). It is filed as biochemical. Conditions: PDE 5 preparation from human platelets; in some cases means of individual determinations. As for the experimental part:
B-3. Inhibition of Human Phosphodiesterase 5 (PDE 5)
PDE 5 preparations are obtained from human platelets by disruption (Microfluidizer®, 800 bar, 3 passes), followed by centrifugation (75 000 g, 60 min, 4° C.) and ion exchange chromatography of the supernatant on a Mono Q 10/10 column (linear sodium chloride gradient, elution with a 0.2-0.3M solution of sodium chloride in buffer (20 mM Hepes pH 7.2, 2 mM magnesium chloride). Fractions having PDE 5 activity are combined (PDE 5 preparation) and stored at −80° C.
To determine their in vitro action on human PDE 5, the test substances are dissolved in 100% DMSO and serially diluted. Typically, dilution series (1:3) from 200 μM to 0.091 μM are prepared (resulting final concentrations in the test: 4 μM to 0.0018 μM). In each case 2 μl of the diluted substance solutions are placed into the wells of microtitre plates (Isoplate-96/200W; Perkin Elmer). Subsequently, 50 μl of a dilution of the above-described PDE 5 preparation are added. The dilution of the PDE 5 preparation is chosen such that during the later incubation less than 70% of the substrate are converted (typical dilution: 1:100; dilution buffer: 50 mM tris/hydrochloric acid pH 7.5, 8.3 mM magnesium chloride, 1.7 mM EDTA, 0.2% BSA). The substrate, [8-^3H] cyclic guanosine-3′,5′-monophosphate (1 μCi/μl; Perkin Elmer), is diluted 1:2000 with assay buffer (50 mM tris/hydrochloric acid pH 7.5, 8.3 mM magnesium chloride, 1.7 mM EDTA) to a concentration of 0.0005 μCi/μl. By addition of 50 μl (0.025 μCi) of the diluted substrate, the enzyme reaction is finally started. The test mixtures are incubated at room temperature for 60 min and the reaction is stopped by adding 25 μl of a suspension of 18 mg/ml yttrium scintillation proximity beads in water (phosphodiesterase beads for SPA assays, RPNQ 0150, Perkin Elmer). The microtitre plates are sealed with a film and left to stand at room temperature for 60 min. Subsequently, the plates are analysed for 30 s per well in a Microbeta scintillation counter (Perkin Elmer). IC50 values are determined using the graphic plot of the substance concentration against percentage PDE 5 inhibition.

By pIC50 is commonly meant the negative decadic logarithm of the IC50, by convention in mol/L. Read a high pIC50 as a low IC50. In the case of `Cc1nc2c(cc1F)c(-c1nc3c(c(C(N)=O)n1)C(C)(C(F)(F)F)C(=O)N3)nn2Cc1cccc(F)c1F` (racemic) [Example 9, rac-2-[1-(2,3-difluorobenzyl)-5-fluoro-6-methyl-1H-pyrazolo[3,4-b]pyridin-3-yl]-5-methyl-6-oxo-5-(trifluoromethyl)-6,7-dihydro-5H-pyrrolo[2,3-d]pyrimidine-4-carboxamide], the MEC in test [1] was 0.3 µM. The pIC50 in test [2] is 7.24.

Turning to `Cc1nc2c(cc1F)c(-c1nc3c(c(C(N)=O)n1)C(C)(C(F)(F)F)C(=O)N3)nn2Cc1ccccc1F` (racemic) [Example 12, rac-2-[5-fluoro-1-(2-fluorobenzyl)-6-methyl-1H-pyrazolo[3,4-b]pyridin-3-yl]-5-methyl-6-oxo-5-(trifluoromethyl)-6,7-dihydro-5H-pyrrolo[2,3-d]pyrimidine-4-carboxamide], in test [1], the MEC came to 0.065 µM. The pIC50 in test [2] is 6.89.

Take `Cc1nc2c(cc1F)c(-c1nc3c(c(C(N)=O)n1)C(C)(C(F)(F)F)C(=O)N3)nn2Cc1c(F)ccc(F)c1F` (racemic) [Example 15, rac-2-[5-fluoro-6-methyl-1-(2,3,6-trifluorobenzyl)-1H-pyrazolo[3,4-b]pyridin-3-yl]-5-methyl-6-oxo-5-(trifluoromethyl)-6,7-dihydro-5H-pyrrolo[2,3-d]pyrimidine-4-carboxamide]: the MEC in test [1] was found to be 0.2 µM. Also, the pIC50 in test [2] is 5.92.

As for `Cc1nc2c(cc1F)c(-c1nc3c(c(C(N)=O)n1)C(C)(C(F)(F)F)C(=O)N3)nn2Cc1ncccc1F` (racemic) [Example 18, rac-2-{5-Fluoro-1-[(3-fluoropyridin-2-yl)methyl]-6-methyl-1H-pyrazolo[3,4-b]pyridin-3-yl}-5-methyl-6-oxo-5-(trifluoromethyl)-6,7-dihydro-5H-pyrrolo[2,3-d]pyrimidine-4-carboxamide], in test [1], the MEC was 0.3 µM. In test [2], this molecule showed a pIC50 of 6.24.

For the molecule `CC1(C(F)(F)F)C(=O)Nc2nc(-c3nn(Cc4ncccc4F)c4ncc(F)cc34)nc(C(N)=O)c21` (racemic) [Example 21, rac-2-{5-Fluoro-1-[(3-fluoropyridin-2-yl)methyl]-1H-pyrazolo[3,4-b]pyridin-3-yl}-5-methyl-6-oxo-5-(trifluoromethyl)-6,7-dihydro-5H-pyrrolo[2,3-d]pyrimidine-4-carboxamide], in test [1], the MEC was 3 µM. Further, the pIC50 in test [2] is 6.64.

Turning to `CCC(C)NC(=O)c1nc(-c2nn(Cc3ccccc3F)c3ncccc23)nc2c1C(C)(C)C(=O)N2` (racemic) [Example 63, rac-N-(butan-2-yl)-2-[1-(2-fluorobenzyl)-1H-pyrazolo[3,4-b]pyridin-3-yl]-5,5-dimethyl-6-oxo-6,7-dihydro-5H-pyrrolo[2,3-d]pyrimidine-4-carboxamide], the MEC in test [1] turned out to be 0.1 µM. Besides, the pIC50 in test [2] is 7.96.

On to `CC1(C)C(=O)Nc2nc(-c3nn(Cc4ccccc4F)c4ncccc34)nc(C(=O)NCC(N)=O)c21` [Example 75, N-(2-amino-2-oxoethyl)-2-[1-(2-fluorobenzyl)-1H-pyrazolo[3,4-b]pyridin-3-yl]-5,5-dimethyl-6-oxo-6,7-dihydro-5H-pyrrolo[2,3-d]pyrimidine-4-carboxamide], for which, in test [1], the MEC worked out at 0.3 µM.

Take `Cc1cnccc1NC(=O)c1nc(-c2nn(Cc3ccccc3F)c3ncccc23)nc2c1C(C)(C)C(=O)N2` [Example 101, 2-[1-(2-fluorobenzyl)-1H-pyrazolo[3,4-b]pyridin-3-yl]-5,5-dimethyl-N-(3-methylpyridin-4-yl)-6-oxo-6,7-dihydro-5H-pyrrolo[2,3-d]pyrimidine-4-carboxamide]: the MEC in test [1] was 0.3 µM.

As to `CC(C)(C)CNC(=O)c1nc(-c2nn(Cc3ccccc3F)c3ncccc23)nc2c1C(C)(C)C(=O)N2` [Example 102, N-(2,2-dimethylpropyl)-2-[1-(2-fluorobenzyl)-1H-pyrazolo[3,4-b]pyridin-3-yl]-5,5-dimethyl-6-oxo-6,7-dihydro-5H-pyrrolo[2,3-d]pyrimidine-4-carboxamide], the MEC in test [1] stood at 0.3 µM.

Regarding `Cc1cc(NC(=O)c2nc(-c3nn(Cc4ccccc4F)c4ncccc34)nc3c2C(C)(C)C(=O)N3)ccn1` [Example 106, 2-[1-(2-fluorobenzyl)-1H-pyrazolo[3,4-b]pyridin-3-yl]-5,5-dimethyl-N-(2-methylpyridin-4-yl)-6-oxo-6,7-dihydro-5H-pyrrolo[2,3-d]pyrimidine-4-carboxamide], in test [1], the MEC was 0.3 µM.

As to `CN(CCC(N)=O)C(=O)c1nc(-c2nn(Cc3ccccc3F)c3ncccc23)nc2c1C(C)(C)C(=O)N2` [Example 110, N-(3-amino-3-oxopropyl)-2-[1-(2-fluorobenzyl)-1H-pyrazolo[3,4-b]pyridin-3-yl]-N,5,5-trimethyl-6-oxo-6,7-dihydro-5H-pyrrolo[2,3-d]pyrimidine-4-carboxamide], the MEC in test [1] is 1 µM.

As for `CC1(C)C(=O)Nc2nc(-c3nn(Cc4ccccc4F)c4ncccc34)nc(C(=O)Nc3ccncc3)c21` [Example 116, 2-[1-(2-fluorobenzyl)-1H-pyrazolo[3,4-b]pyridin-3-yl]-5,5-dimethyl-6-oxo-N-(pyridin-4-yl)-6,7-dihydro-5H-pyrrolo[2,3-d]pyrimidine-4-carboxamide], in test [1], the MEC amounted to 1 µM.

`CCCCCCNC(=O)c1nc(-c2nn(Cc3ccccc3F)c3ncccc23)nc2c1C(C)(C)C(=O)N2` [Example 124, 2-[1-(2-fluorobenzyl)-1H-pyrazolo[3,4-b]pyridin-3-yl]-N-hexyl-5,5-dimethyl-6-oxo-6,7-dihydro-5H-pyrrolo[2,3-d]pyrimidine-4-carboxamide]: the MEC in test [1] was 1 µM.

Consider `CC(C)(C)CCNC(=O)c1nc(-c2nn(Cc3ccccc3F)c3ncccc23)nc2c1C(C)(C)C(=O)N2` [Example 135, N-(3,3-dimethylbutyl)-2-[1-(2-fluorobenzyl)-1H-pyrazolo[3,4-b]pyridin-3-yl]-5,5-dimethyl-6-oxo-6,7-dihydro-5H-pyrrolo[2,3-d]pyrimidine-4-carboxamide], for which, in test [1], the MEC is 1 µM.
